From patent US5445951A, “Regioselective enzymatic deacylation of sucrose esters in anhydrous organic media” (priority 1993, dated 1995)

Experiments:
lipase AY 30 [1] = experiment: Effect of the solvent on lipase AY 30 SOA deacetylation; format: biochemical, Candida cylindracea; settings: lipase AY 30, solvent as labelled, 24 hrs
Protocol: (§1) Identical enzyme catalyzed SOA deacetylations were run in numerous anhydrous solvents. After 24 hrs incubation an aliquot was analyzed by HPLC.
(§2) Enzyme and Solvent Screening for SOA Deacetylation. A scintillation vial was charged successively with 100 mg of powdered enzyme as received or prepared as described and 1.0 ml of 20 mM sucrose octaacetate (SOA) dissolved in an organic solvent. Following a 5 sec sonication, the vial was incubated in a controlled-temperature shaker at 45° C. and 300 RPM for 24 hrs. A 200 μl aliquot of the reaction mixture was withdrawn and centrifuged. The supernatant was collected and evaporated under a stream of N2. The residue was reconstituted in 200 μl of acetonitrile and 10 μl of this solution was analyzed by HPLC.

alcalase [2] = target: T1, alcalase (Bacillus licheniformis, UniProt P00780); experiment: Solvent effect on alcalase catalyzed deacetylation of SOA; format: biochemical; settings: 24 hrs; for SheptaA: total of 1'-OH and 6'-OH heptaacetates; for SOA / ShexaA: solvent as labelled
T1 construct: purchased Novo Nordisk (gift)
T1 sequence (P00780 106-379): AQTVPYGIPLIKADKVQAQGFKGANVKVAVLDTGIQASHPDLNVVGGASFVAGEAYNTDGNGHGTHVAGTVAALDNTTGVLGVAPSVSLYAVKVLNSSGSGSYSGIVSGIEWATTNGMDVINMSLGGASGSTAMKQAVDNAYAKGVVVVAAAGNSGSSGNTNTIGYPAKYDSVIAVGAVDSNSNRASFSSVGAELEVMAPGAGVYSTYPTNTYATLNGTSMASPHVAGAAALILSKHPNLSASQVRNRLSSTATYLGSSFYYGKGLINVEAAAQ
Protocol: as §1
Enzyme Precipitation. Alcalase was prepared by adding 37.5 ml cold acetone (-20° C.) to 25 ml of alcalase solution as supplied by Novo. The aqueous acetone was decanted and the residue dissolved in 25 ml of pH 9.0 glycine--NaOH buffer. The pH of this solution was adjusted to 9.0 with a few drops of dilute NaOH solution. Cold acetone (37.5 ml at -20° C.) was added to the buffered alcalase solution and the precipitate collected by filtration on a medium porosity glass funnel and dried overnight at 2 millitorr. The resulting pellet was ground to a fine powder and stored at 4° C. over saturated aqueous potassium carbonate (RH: 43%) for 24 hrs.
as §2

lipase AP 12 [3] = experiment: Solvent effect on lipase AP 12 catalyzed deacetylation of SOA; format: biochemical, Aspergillus niger; settings: lipase AP 12, solvent as labelled, 24 hrs
Protocol: as §1
(§3) The pH of commercial powdered enzymes was adjusted in the following way: The enzyme (3 g) was dissolved in 25 ml of an appropriate buffer and the pH adjusted with dilute NaOH or citric/phosphoric acid solution. Cold acetone (37.5 ml at -20° C.) was added and the precipitate collected on a medium porosity glass funnel and dried overnight at 2 millitorr. The protein pellet was ground to a fine powder and equilibrated at 4° C. over saturated aqueous potassium carbonate (RH: 43%) for 24 hrs.
as §2

proleather [4] = experiment: Solvent effect on proleather catalyzed deacetylation of SOA; format: biochemical, Bacillus subtilis; settings: 24 hrs; for SheptaA: total of 1'-OH and 6'-OH heptaacetates; for SOA / ShexaA: solvent as labelled
Protocol: as §1, §3, §2

[5] = test system: alcalase deposited on Hyflo Super Cell; experiment: Solvent effect on alcalase deposited on Hyflo Super Cell catalyzed deacetylation of SOA; format: biochemical, Bacillus licheniformis; settings: immobilized alcalase, 4 hour incubation; for SheptaA: total of 1'-OH and 6'-OH heptaacetates
Protocol: (§4) Alcalase and lipase AY 30 were deposited on Hyflo Super Cell and used as catalysts for SOA deacetylation reactions in several anhydrous solvents.
(§5) Enzyme immobilization. The pH of a solution of 900 mg of buffered alcalase in 18 ml of water was adjusted to 9.0 with dilute NaOH. Hyflo super cell (6 g) was added and the slurry thoroughly mixed. […] Lipase AY 30 was immobilized in the same manner except that the protein solution was adjusted to pH 7.0 with sodium phosphate.
as §2, with “Following a 5 sec sonication, the vial was incubated in a controlled-temperature shaker at 45° C. and 300 RPM for 24 hrs.” left out

[6] = test system: lipase AY 30 deposited on Hyflo Super Cell; experiment: Solvent effect on lipase AY 30 deposited on Hyflo Super Cell catalyzed deacetylation of SOA; format: biochemical, Candida cylindracea; settings: immobilized lipase AY 30, 24 hrs
Protocol: as §4, §5, §2

[7] = n-octanol/water; cited from earlier work
alcalase [8] = target: T1, alcalase; experiment: Nucleophile screening for alcalase catalyzed deacetylation of SOA in diisopropyl ether; format: biochemical; settings: for regiochem: nucleophile 200 mM, peak height ratio 1'-OH / 6'-OH heptaacetate
Protocol: (§6) Nucleophile screening for alcalase, proleather or lipase AP 12 catalyzed deacetylation of SOA. A scintillation vial was charged successively with 100 mg of powdered enzyme prepared as described, 1.0 ml of 20 mM sucrose octaacetate (SOA) and 200 mM of the nucleophile dissolved in diisopropyl ether. Following a 5 sec sonication, the vial was incubated in a controlled-temperature shaker at 45° C. and 300 RPM for 66 hrs. A 200 μl aliquot of the reaction mixture was withdrawn and centrifuged. The supernatant was collected and evaporated under a stream of N2. The residue was reconstituted in 200 μl of acetonitrile and 10 μl of this solution was analyzed by HPLC. For screening concentration effects on enzyme activity, the same protocol was followed except the nucleophile concentration was varied from 0 to 2000 mM.

proleather [9] = experiment: Nucleophile screening for proleather catalyzed deacetylation of SOA in diisopropyl ether; format: biochemical, Bacillus subtilis; settings: nucleophile 200 mM; for % conv: 66 hrs; for regiochem: peak height ratio 1'-OH / 6'-OH heptaacetate
Protocol: as §6

lipase AP 12 [10] = experiment: Nucleophile screening for lipase AP 12 catalyzed deacetylation of SOA in diisopropyl ether; format: biochemical, Aspergillus niger; settings: lipase AP 12, nucleophile 200 mM, 66 hrs
Protocol: as §6

lipase AY 30 [11] = experiment: Effect of the solvent on lipase AY 30 catalyzed deacylation of SOP; format: biochemical, Candida cylindracea; on SheptaP's ([…]): HPLC peak 8.2 min
Protocol: Identical SOP deacylations were performed with lipase AY 30 or protease type XXIII in numerous anhydrous organic solvents, as shown in Tables 12 and 13.
as §2, with “Solvent” for “Enzyme and Solvent”, “screening” for “Screening”, “SOP deacylation.” for “SOA Deacetylation.”, “lipase AY 30” for “powdered enzyme as received”, “protease type XXIII” for “prepared”, “octapropionate (SOP) and 200mM butanol” for “octaacetate (SOA)”

Structure (SMILES)	SOA (lipase AY 30 [1])	SheptaA (lipase AY 30 [1])	ShexaA (lipase AY 30 [1])	SheptaA (alcalase [2])	SOA (alcalase [2])	ShexaA (alcalase [2])	SOA (lipase AP 12 [3])	SheptaA (lipase AP 12 [3])	ShexaA (lipase AP 12 [3])	SheptaA (proleather [4])	SOA (proleather [4])	ShexaA (proleather [4])	SOA [5]	ShexaA [5]	SheptaA [5]	SOA [6]	regiochem (alcalase [8])	% conv (proleather [9])	regiochem (proleather [9])	% conv (lipase AP 12 [10])	other results
COc1ccccc1 [anisole]	86.1%	9.6%	4.3%	3.9%	96.1%	0%	96.2%	3.8%	0%	19.4%	79.2%	1.4%	98.0%	0%	2.0%	98.2%					SheptaA [6]: 1.2%; log P [7]: 2.1
CCCO [propanol]																	8.8	46.4%	5.3	26.2%	
CC(C)NC(C)C [diisopropylamine]																	9.5	37.3%	4.9	3.2%	increase in conversion relative to reaction with no added nucleophile (alcalase [8]; 200 mM): at least 25%
CCO [ethanol]																	7.5	47.7%	5.6	26.7%	
CC(C)OC(C)C [diisopropyl ether]	29.6%	39.6%	30.9%	22.3%	75.2%	2.5%	82.7%	15.7%	1.6%	25.9%	70.6%	3.5%	89.3%	0.8%	9.9%	85.7%					SheptaA [6]: 14.3%; ShexaP (4.2 min) (lipase AY 30 [11]; lipase AY 30, 24 hrs, HPLC peak 4.2 min): 13.0%; SheptaP's (8.9 min) (lipase AY 30 [11]; lipase AY 30, 24 hrs, HPLC peak 8.9 min): 1.5%; SheptaP's (9.4 min) (lipase AY 30 [11]; lipase AY 30, 24 hrs, HPLC peak 9.4 min): 13.5%; SheptaP's ([…]) (lipase AY 30 [11]; lipase AY 30, 24 hrs, HPLC peak […]): 17.3%; SOA (lipase AY 30 [11]; lipase AY 30, solvent as labelled, 200 mM butanol, 24 hrs, peak 21.4 min): 54.7%; log P [7]: 1.9
OCCc1ccccc1 [phenethyl alcohol]																	7.3	51.5%	5.3	25.7%	
